Results published in paper PMC6158189, “A pharmacological probe identifies cystathionine β-synthase as a new negative regulator for ferroptosis” (Cell Death & Disease, 2018).

How the values were obtained:
[1] = test system: H22 mouse liver tumor cells in ICR mice; conditions: 20 mg/kg/day i.v.
Procedure: Fig. 7 CH004 suppresses tumor growth in vivo. a–c CH004 reduces the growth rate of tumors in liver tumor xenograft mice model. Mice bearing liver tumor xenografts were treated with CH004 (10 mg/kg/d), cyclophophamide (CTX, 20 mg/kg/d) or PBS (Vehicle) for 21 days. The tumor volumes were measured every two days during day 6 to day 22 and the data was presented in a (n = 8). […] Mice body weight was measured along with the measurement of tumor volume (n = 8). Means ± SDS. Statistical analyses were performed on the raw data by one-way (c) or two-way ANOVA (a) with Bonferroni post-tests. The significance of the CH004-treated group compared to Vehicle was indicated with $ (a), whereas the comparison of the CTX group to Vehicle was with # (a). $, # or ***p < 0.001
The in vivo effect of CH004 on tumor growth was evaluated in a xenograft mice model of liver cancer. The experiment was independently performed by Jiangsu KeyGEN BioTECH Co. LTD (Jiangsu, China) and followed the standard procedures that were established and approved by the local Animal Care and Use Committee. Briefly, H22 mouse liver tumor cells were intraperitoneal injected into female ICR mice (SLAC Laboratory Animal Co. Ltd, Shanghai, China). 8 days later, mice with distended abdomen were killed, and the ascites was collected, washed and resuspended with PBS. 0.1 ml cell suspension with a density of 1 × 10^7/ml was subcutaneously injected into the right dorsum of ICR female mice (~20 g). The mice bearing H22 tumor cells were then randomized into groups (n = 8) on the following day after the implantation. Then, the mice were injected via a tail vein (i.v.) with PBS, CH004 (10 mg/kg) or cyclophosphamide (CTX, a known anticancer drug; 20 mg/kg) once per day and for 21 days. Tumor sizes were measured every 2 days starting from the day 6 using a caliper, and tumor volume was calculated using the formula V = length × width^2 × π / 6. The body weights of mice were recorded under the same conditions. The mice were sacrificed on day 22, and the tumors were taken out and weighted.

[2] = target: T1, endogenous hCBS in HepG2 cells (Homo sapiens, UniProt P35520); assay: endogenous H2S in HepG2 cells (AzMC probe); assay type: cell-based; conditions: 8 h, HepG2
T1 construct: effects of CH004 on the activity of endogenous CBS by incubating with HepG2; endogenous in cells; host or cells: HepG2
T1 sequence (P35520 1-551): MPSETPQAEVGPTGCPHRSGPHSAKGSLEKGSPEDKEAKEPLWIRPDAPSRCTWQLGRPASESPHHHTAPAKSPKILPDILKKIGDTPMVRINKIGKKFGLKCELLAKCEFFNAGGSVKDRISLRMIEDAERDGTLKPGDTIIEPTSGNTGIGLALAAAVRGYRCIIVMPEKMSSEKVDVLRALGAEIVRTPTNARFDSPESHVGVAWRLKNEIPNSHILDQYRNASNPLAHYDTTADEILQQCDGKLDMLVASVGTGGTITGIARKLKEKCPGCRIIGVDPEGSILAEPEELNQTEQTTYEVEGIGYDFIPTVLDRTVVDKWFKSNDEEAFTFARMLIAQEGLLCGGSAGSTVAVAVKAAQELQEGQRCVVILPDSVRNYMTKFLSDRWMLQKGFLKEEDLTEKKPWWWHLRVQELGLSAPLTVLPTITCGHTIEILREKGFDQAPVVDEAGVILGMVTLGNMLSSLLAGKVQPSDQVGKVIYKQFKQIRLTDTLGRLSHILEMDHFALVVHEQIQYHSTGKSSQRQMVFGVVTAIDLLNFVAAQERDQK
Procedure: Fig. 3 The effect of CH004 on the activity of endogenous hCBS in cells. a CH004 dose-dependently elevates the levels of Hcys in HepG2 and HEK293T cells. HepG2 cells or HEK293T cells were incubated with indicated CH004 or DMSO (control) for 12 h. The amount of total Hcys in cells was measured by ELISA using Axis® Homocysteine EIA kit (IBL, AX51301) (“Materials and Methods” section). […] HepG2 cells were treated with indicated DMSO, CH004 or HA for 8 h before the staining with AzMC probe. The amount of the H2S (blue) was quantified and is shown in (c). Bars, 50 μm. Control (CTR), DMSO group (100%). A representative fluorescence image from three independent experiments is shown. Means ± SDS (n = 3). d CH004 elevates Hcys in the peripheral blood of rats. The total Hcys of the blood samples collected from the anesthetized rats at the 75 min time point (Materials and Methods) were quantified by ELISA (see above). Means ± SDS (n = 6).
(§1) H2S levels in living cells were detected using a H2S-specific fluorescent probe according to a protocol described previously[31],[55]. To measure H2S in transiently transfected HEK293T cells, the cells were seeded on poly-D-Lys-coated coverslips (Thermo Scientific, Waltham, MA, USA) in 12-well plates at a density of ~ 1 × 10^5 cells per well, and hCBS or hCSE plasmids were transiently transfected by X-tremeGENE HP DNA Transfection Reagent according to the manufacturer’s protocol (Roche, Basel, Switzerland). After 24 h, the transfected cells were treated with DMSO or inhibitors for another 8 h, followed by staining with 7-azide-4-methylcoumarin (AzMC; Sigma-Aldrich). Similarly, HEK293T cells stably expressing CBS WT, Q222A mutant or EV were seeded on poly-D-Lys-coated coverslips in 12-well plates for one day before treatment with DMSO or inhibitors for 8 h. After incubation with 50 μM AzMC at 37 °C for 30 min, the cells were washed 4 times with PBS, and the fluorescent images were recorded with excitation by 405 nm laser by using a A1Si (Nikon) confocal microscope. The intensity of the blue fluorescent signals, indicating the amount of H2S, was quantified by ImageJ software (NIH, Bethesda, ML). The H2S signal was then corrected for the background signal detected in HEK293T cells transiently or stably expressing of empty vector (HEK293T-EV) and normalized by the corresponding cell-occupying area and compared with the control (DMSO group, 100%). Similarly, the H2S signal in HepG2 cells was quantified by AzMC staining, corrected for the background signal outside the cells, normalized by the cell area and expressed as percentages of DMSO control (100%).
To elucidate the subcellular localization of H2S, HepG2 cells were seeded on poly-D-Lys-coated coverslips in 12-well plates. After treatment with DMSO or inhibitors for 8 h, cells were sequentially incubated with 200 nM Mito-Tracker® Green and 50 μM AzMC for 30 min at 37 °C in PBS, and then fluorescent images were taken using a confocal microscope.
Figure S9. The effect of AOAA on the level of endogenous H2S in HepG2 cells. […] HepG2 cells were incubated with 0 (DMSO control), 1, 5 or 10 mM AOAA for 8 h before staining with 50 μM AzMC. Upper panels, the overlaid images; middle panels, the corresponding fluorescent images (blue, H2S); the lower panels, the bright-field images. Bars: 50 μm. (B) Quantification of the mean fluorescent density of H2S (blue). The intensity of H2S was accordingly quantified and normalized by correcting for the background signal outside cells. Data was expressed as percentages of the control (DMSO group, 100%). Means ± SDs (n=3). One-way ANOVA with Bonferroni post-tests was used for the analysis. *, p< 0.05; ***, p< 0.001; n.s. no significance. The images are one representative from three independent experiments.

[3] = target: T2, hCBS-FL wild type (293T-CBS WT) (Homo sapiens, UniProt P35520); assay: H2S in HEK293T cells stably expressing hCBS WT (AzMC probe); assay type: cell-based; conditions: 8 h
T2 construct: human CBS or hCSE full-length (CBS-FL or CSE) was subcloned into pGEX-KG, pcDNA3 or pCDH vector; expressed in transfected cells
T2 sequence (P35520 1-551): T1 sequence (P35520 1-551)
Procedure: HEK293T cells were transiently transfected with empty vector (EV, i and ii), hCBS-FL (iii and iv) or hCSE (v and vi) plasmids, followed by incubation with DMSO (i–iii and v) or 10 μM CH004 (iv and vi) for 8 h before staining with 50 μM AzMC, a H2S-specific probe (“Materials and Methods” section). For larger fluorescent and bright-field images, please see Supplementary Figure 4. The expression levels of hCBS or hCSE in HEK293T cells after transient transfections were determined by western blotting using an anti-CBS antibody (3E1, 1:2000; Abnova) or anti-CSE antibody (1:500, GeneTex). The densities of protein bands for hCBS or hCSE in the blots were quantified with the ImageJ software (National Institutes of Health, Bethesda, MD, USA) and expressed as ratios of respective control (EV group). All immunoblots are representative of at least two independent experiments using GAPDH as the loading control. The fluorescent images of the H2S (blue) were accordingly quantified (“Materials and Methods” section) with ImageJ. […] The DMSO groups of the controls (CTR), which are expressing of hCBS or hCSE, were normalized to 100% and the levels of H2S in CH004-treated or EV group are shown as relative percentages. c, d CH004 dose-dependently suppresses the activity of hCBS WT without affecting the activity of CH004-insensitive mutant. HEK293T cells stably expressing EV (i and ii), hCBS-FL wild type (293T-CBS WT; iii–v) or CBS-FL mutant (293T-CBS Q222A, vi–viii) were treated with DMSO (i–iii and vi), 5 μM CH004 (iv, vii) or 10 μM CH004 (v, viii) for 8 h before staining with the AzMC. For larger fluorescent and bright-field images, please see Supplementary Figures 5–6. […] The DMSO groups of the controls (CTR), which are expressing of hCBS-FL wt or Q222A mutant, were normalized to 100% and the levels of H2S in CH004-treated or EV group are shown as relative percentages. A representative fluorescence image from three independent experiments is shown. Means ± SDS (n = 3). Statistical analyses were performed on the raw data for each group by one-way (b) or two-way (d) ANOVA with Bonferroni post-tests. ***p < 0.001. Bars, 50 μm
as §1, with “After 24 h, the transfected cells were treated with DMSO or inhibitors for another 8 h, followed by staining with 7-azide-4-methylcoumarin (AzMC; Sigma-Aldrich). Similarly, HEK293T cells stably expressing CBS WT, Q222A mutant or EV were seeded on poly-D-Lys-coated coverslips in 12-well plates for one day before treatment with DMSO or inhibitors for 8 h.” left out, “(100%). […]” for “(100%).”

| SMILES | reduction of tumor volume or weight ([1]; 21-day treatment) | effect on total body weight ([1]; 21 days) | effect on production of H2S ([2]; 1 mM) | decrease in cellular H2S ([2]; 10 mM) [%] | production of endogenous H2S ([2]; 1, 5 or 10 mM) | effect on production of H2S ([3]; 1 mM, HEK293T stably expressing hCBS) | decrease in cellular H2S ([3]; 10 mM, HEK293T stably expressing hCBS) [%] | H2S production ([3]; 1, 5 or 10 mM, 293T-CBS WT) |
| --- | --- | --- | --- | --- | --- | --- | --- | --- |
| O=P1(N(CCCl)CCCl)NCCCO1 (centres unmarked) [CTX, cyclophosphamide, reference compound] | more than half | did not substantially affect |  |  |  |  |  |  |
| NOCC(=O)O [AOAA, aminooxyacetic acid, reference compound] |  |  | cannot suppress | ≤ 30 | impotently decreases | cannot suppress | ≤ 30 | weakly inhibits |
